Experiments:
Assay type in all cases: in vivo
[1] = test system: Southern Armyworm (Spodoptera eridania), 2nd instar larvae; assay: Southern armyworm (Spodoptera eridania) 2nd instar larvae mortality on sprayed lima bean plants; settings: 96 h, read-out: mortality in comparison with untreated controls
Protocol: The active compounds were formulated by a Tecan liquid handler in 100% cyclohexanone as a 10,000 ppm solution supplied in tubes. The 10,000 ppm solution was serially diluted in 100% cyclohexanone to make interim solutions. These served as stock solutions for which final dilutions were made by the Tecan in 50% acetone:50% water (v/v) into 10 or 20 ml glass vials. A nonionic surfactant (Kinetic®) was included in the solution at a volume of 0.01% (v/v). The vials were then inserted into an automated electrostatic sprayer equipped with an atomizing nozzle for application to plants/insects. Lima bean plants (variety Sieva) were grown 2 plants to a pot and selected for treatment at the 1st true leaf stage. Test solutions were sprayed onto the foliage by an automated electrostatic plant sprayer equipped with an atomizing spray nozzle. The plants were dried in the sprayer fume hood and then removed from the sprayer. Each pot was placed into perforated plastic bags with a zip closure. Ten to 11 armyworm larvae were placed into the bag and the bags zipped closed. Test plants were maintained in a growth room at about 25° C. and about 20-40% relative humidity for 4 days, avoiding direct exposure to fluorescent light (14:10 light:dark photoperiod) to prevent trapping of heat inside the bags. Mortality and reduced feeding were assessed 4 days after treatment, compared to untreated control plants.

[2] = test system: tobacco budworm (Heliothis virescens); assay: Tobacco budworm (Heliothis virescens) egg and larval mortality, insect diet microtiter plate; settings: 120 h, read-out: mortality in comparison with untreated controls
Protocol: For evaluating control of tobacco budworm (Heliothis virescens) the test unit consisted of 96-well-microtiter plates containing an insect diet and 15-25 H. virescens eggs.
The compounds were formulated using a solution containing 75% v/v water and 25% v/v DMSO. Different concentrations of formulated compounds were sprayed onto the insect diet at 10 μl, using a custom built micro atomizer, at two replications. After application, microtiter plates were incubated at about 28±1° C. and about 80±5% relative humidity for 5 days. Egg and larval mortality was then visually assessed.

[3] = test system: yellow fever mosquito (Aedes aegypti); assay: whole plant or invertebrate; settings: 48 h, larval mortality after 2 days, read-out: mortality in comparison with untreated controls
Protocol: For evaluating control of yellow fever mosquito (Aedes aegypti) the test unit consisted of 96-well-microtiter plates containing 200 μl of tap water per well and 5-15 freshly hatched A. aegypti larvae. The active compounds were formulated using a solution containing 75% (v/v) water and 25% (v/v) DMSO. Different concentrations of formulated compounds or mixtures were sprayed onto the insect diet at 2.5 μl, using a custom built micro atomizer, at two replications. After application, microtiter plates were incubated at 28+1° C., 80+5% RH for 2 days. Larval mortality was then visually assessed.

[4] = test system: boll weevil (Anthonomus grandis); assay: Boll weevil (Anthonomus grandis) egg and larval mortality, insect diet microtiter plate; settings: 120 h, read-out: mortality in comparison with untreated controls
Protocol: For evaluating control of boll weevil (Anthonomus grandis) the test unit consisted of 96-well-microtiter plates containing an insect diet and 5-10 A. grandis eggs. The compounds were formulated using a solution containing 75% v/v water and 25% v/v DMSO. Different concentrations of formulated compounds were sprayed onto the insect diet at 5 μl, using a custom built micro atomizer, at two replications. After application, microtiter plates were incubated at about 25±1° C. and about 75±5% relative humidity for 5 days. Egg and larval mortality was then visually assessed.

[5] = test system: Red Spider Mite (Tetranychus kanzawai); assay: Red spider mite (Tetranychus kanzawai) mortality on sprayed cowpea beans; settings: 72 h, read-out: mortality in comparison with untreated controls
Protocol: The active compound is dissolved at the desired concentration in a mixture of 1:1 (vol:vol) distilled water:acetone. Add surfactant (Kinetic) is added at a rate of 0.01% (vol/vol). The test solution is prepared at the day of use. Potted cowpea beans of 4-5 days of age are cleaned with tap water and sprayed with 1-2 ml of the test solution using air driven DeVilbiss® hand atomizer at 20-30 psi (≈1.38 to 2.07 bar). The treated plants are allowed to air dry and afterwards inoculated with 30 or more mites by clipping a cassava leaf section from rearing population. Treated plants are placed inside a holding room at about 25-26° C. and about 65-70% relative humidity. Estimate percent mortality is assessed 72 hours after treatment.

[6] = test system: Green Peach Aphid (Myzus persicae); assay: Green peach aphid (Myzus persicae) mortality on sprayed bell pepper plants; settings: 120 h, read-out: mortality in comparison with untreated controls
Protocol: The active compounds were formulated by a Tecan liquid handler in 100% cyclohexanone as a 10,000 ppm solution supplied in tubes. The 10,000 ppm solution was serially diluted in 100% cyclohexanone to make interim solutions. These served as stock solutions for which final dilutions were made by the Tecan in 50% acetone:50% water (v/v) into 10or 20 ml glass vials. A nonionic surfactant (Kinetic®) was included in the solution at a volume of 0.01% (v/v). The vials were then inserted into an automated electrostatic sprayer equipped with an atomizing nozzle for application to plants/insects. Bell pepper plants at the first true-leaf stage were infested prior to treatment by placing heavily infested leaves from the main colony on top of the treatment plants. Aphids were allowed to transfer overnight to accomplish an infestation of 30-50 aphids per plant and the host leaves were removed. The infested plants were then sprayed by an automated electrostatic plant sprayer equipped with an atomizing spray nozzle. The plants were dried in the sprayer fume hood, removed, and then maintained in a growth room under fluorescent lighting in a 14:10 light:dark photoperiod at about 25° C. and about 20-40% relative humidity. Aphid mortality on the treated plants, relative to mortality on untreated control plants, was determined after 5 days.

CCS(=O)(=O)c1cc(-c2ccc(F)cc2)cnc1-c1cn2c(n1)SCc1c-2cccc1C(F)(F)F [Compound I.1, 2-[3-ethylsulfonyl-5-(4-fluorophenyl)-2-pyridyl]-6-(trifluoromethyl)-5H-imidazo[1,2-a][3,1]benzothiazine]
> 70%: mortality at 1 ppm [1] | mortality at 30 ppm [2] | mortality at 80 ppm [3] | mortality at 10 ppm [4]

CCS(=O)(=O)c1cc(-c2ccc(F)cc2)cnc1-c1cn2c(n1)OCc1c-2cccc1C(F)(F)F [Compound I.3, 2-[3-ethylsulfonyl-5-(4-fluorophenyl)-2-pyridyl]-6-(trifluoromethyl)-5H-imidazo[1,2-a][3,1]benzoxazine]
> 70%: mortality at 1 ppm [1] | mortality at 800 ppm [5] | mortality at 30 ppm [2] | mortality at 80 ppm [3] | mortality at 90 ppm [6] | mortality at 10 ppm [4]

CCS(=O)(=O)c1cc(-c2ccc(F)cc2)cnc1-c1cn2c(n1)COc1c-2cccc1C(F)(F)F [Compound I.4, 2-[3-ethylsulfonyl-5-(4-fluorophenyl)-2-pyridyl]-6-(trifluoromethyl)-4H-imidazo[2,1-c][1,4]benzoxazine]
> 70%: mortality at 1 ppm [1] | mortality at 30 ppm [2] | mortality at 80 ppm [3] | mortality at 10 ppm [4]

CCS(=O)(=O)c1cc(-c2ccc(F)cc2)cnc1-c1cn2c(n1)CSc1c-2cccc1C(F)(F)F [Compound I.2, 2-[3-ethylsulfonyl-5-(4-fluorophenyl)-2-pyridyl]-6-(trifluoromethyl)-4H-imidazo[2,1-c][1,4]benzothiazine]
> 70%: mortality at 1 ppm [1] | mortality at 30 ppm [2] | mortality at 80 ppm [3] | mortality at 90 ppm [6] | mortality at 10 ppm [4]

CCS(=O)(=O)c1cc(N=S(C)(C)=O)cnc1-c1cn2c(n1)COc1c-2cccc1C(F)(F)F [Compound I.5, [5-ethylsulfonyl-6-[6-(trifluoromethyl)-4H-imidazo[2,1-c][1,4]benzoxazin-2-yl]-3-pyridyl]imino-dimethyl-oxo-lambda6-sulfane]
> 70%: mortality at 250 ppm ([3]; 250 ppm) | mortality at 250 ppm [6] | mortality at 250 ppm [4]

— patent US20240140965A1, “TRICYCLIC PESTICIDAL COMPOUNDS” (priority 2021, published 2024)
